Earlier results in publication PMC9516332 (Frontiers in Oncology, 2022).
Like-named read-outs stand apart in the source and are kept apart here.

What was measured:
Conditions in all cases: cited from earlier work
[1] = molecular target: T1, panel of 255 wild-type kinases (Homo sapiens, UniProt O14920)
T1 sequence (O14920 1-756): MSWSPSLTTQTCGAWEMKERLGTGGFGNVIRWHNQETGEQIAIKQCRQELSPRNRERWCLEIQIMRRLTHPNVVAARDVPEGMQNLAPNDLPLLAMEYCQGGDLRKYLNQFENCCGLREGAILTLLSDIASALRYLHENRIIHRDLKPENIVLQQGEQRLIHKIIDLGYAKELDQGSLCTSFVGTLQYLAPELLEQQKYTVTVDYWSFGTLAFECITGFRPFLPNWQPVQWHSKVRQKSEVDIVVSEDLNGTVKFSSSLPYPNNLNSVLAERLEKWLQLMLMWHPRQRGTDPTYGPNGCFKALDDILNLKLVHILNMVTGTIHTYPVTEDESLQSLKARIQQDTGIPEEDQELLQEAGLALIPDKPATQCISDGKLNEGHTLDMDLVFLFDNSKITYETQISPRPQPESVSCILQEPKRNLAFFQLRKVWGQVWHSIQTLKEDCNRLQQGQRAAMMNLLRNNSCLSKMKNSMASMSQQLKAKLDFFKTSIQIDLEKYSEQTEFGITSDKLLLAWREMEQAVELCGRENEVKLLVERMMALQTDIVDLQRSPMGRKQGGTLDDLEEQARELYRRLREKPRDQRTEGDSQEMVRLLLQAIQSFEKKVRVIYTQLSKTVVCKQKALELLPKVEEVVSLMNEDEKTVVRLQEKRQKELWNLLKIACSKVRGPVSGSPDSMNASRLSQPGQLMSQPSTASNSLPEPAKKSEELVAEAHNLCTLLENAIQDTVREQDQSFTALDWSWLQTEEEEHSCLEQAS

[2] = molecular target: T2, panel of 255 wild-type kinases (Homo sapiens, UniProt O15530)
T2 sequence (O15530 1-556): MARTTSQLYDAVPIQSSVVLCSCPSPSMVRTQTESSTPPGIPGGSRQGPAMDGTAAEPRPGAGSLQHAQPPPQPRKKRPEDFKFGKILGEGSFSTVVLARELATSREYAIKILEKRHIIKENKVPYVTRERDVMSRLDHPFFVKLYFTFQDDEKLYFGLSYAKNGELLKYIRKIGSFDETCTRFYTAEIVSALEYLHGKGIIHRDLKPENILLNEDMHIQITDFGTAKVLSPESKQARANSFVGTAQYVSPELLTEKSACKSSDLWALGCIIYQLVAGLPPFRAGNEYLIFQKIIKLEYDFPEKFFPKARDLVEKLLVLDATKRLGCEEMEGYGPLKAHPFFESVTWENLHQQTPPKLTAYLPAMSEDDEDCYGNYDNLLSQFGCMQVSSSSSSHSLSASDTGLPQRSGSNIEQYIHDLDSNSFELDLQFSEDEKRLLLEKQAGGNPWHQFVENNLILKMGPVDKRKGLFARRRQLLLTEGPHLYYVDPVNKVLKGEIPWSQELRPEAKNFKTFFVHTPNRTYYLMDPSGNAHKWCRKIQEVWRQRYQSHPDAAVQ

[3] = molecular target: panel of 255 wild-type kinases (Homo sapiens, UniProt P28482)
[4] = molecular target: T3, panel of 255 wild-type kinases (Homo sapiens, UniProt P42681)
T3 sequence (P42681 1-527): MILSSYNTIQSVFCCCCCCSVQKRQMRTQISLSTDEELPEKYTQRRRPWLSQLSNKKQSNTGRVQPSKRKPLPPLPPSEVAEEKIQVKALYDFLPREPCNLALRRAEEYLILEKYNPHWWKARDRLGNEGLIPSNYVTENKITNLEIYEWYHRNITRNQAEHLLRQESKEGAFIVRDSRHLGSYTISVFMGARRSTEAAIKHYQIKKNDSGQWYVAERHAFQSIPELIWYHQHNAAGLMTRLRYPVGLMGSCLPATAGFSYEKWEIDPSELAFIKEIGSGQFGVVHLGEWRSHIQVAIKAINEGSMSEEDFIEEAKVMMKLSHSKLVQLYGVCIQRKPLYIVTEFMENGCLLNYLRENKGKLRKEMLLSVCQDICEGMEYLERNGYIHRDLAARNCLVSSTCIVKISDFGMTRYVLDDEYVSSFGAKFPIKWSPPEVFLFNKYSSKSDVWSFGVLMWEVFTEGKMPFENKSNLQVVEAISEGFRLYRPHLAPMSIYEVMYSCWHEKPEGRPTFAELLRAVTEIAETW

[5] = molecular target: panel of 255 wild-type kinases (Homo sapiens, UniProt P45983)
[6] = molecular target: panel of 255 wild-type kinases (Homo sapiens, UniProt P48730)
[7] = molecular target: panel of 255 wild-type kinases (Homo sapiens, UniProt P54764)
[8] = molecular target: panel of 255 wild-type kinases (Homo sapiens, UniProt Q9BUB5)
[9] = molecular target: panel of 255 wild-type kinases (Homo sapiens, UniProt Q9Y2H1)
[10] = kinase IKKβ, 1 µmol/L single concentration, ref DOI: 10.1158/1535-7163.MCT-18-0877
[11] = kinase PDK1, 1 µmol/L single concentration, ref DOI: 10.1158/1535-7163.MCT-18-0877
[12] = kinase Erk2, 1 µmol/L single concentration, ref DOI: 10.1158/1535-7163.MCT-18-0877
[13] = kinase TXK, 1 µmol/L single concentration, ref DOI: 10.1158/1535-7163.MCT-18-0877
[14] = kinase JNK1, 1 µmol/L single concentration, ref DOI: 10.1158/1535-7163.MCT-18-0877
[15] = kinase CK1δ, 1 µmol/L single concentration, ref DOI: 10.1158/1535-7163.MCT-18-0877
[16] = kinase EPHA4, 1 µmol/L single concentration, ref DOI: 10.1158/1535-7163.MCT-18-0877
[17] = MNK1, 1 µmol/L single concentration, ref DOI: 10.1158/1535-7163.MCT-18-0877
[18] = NDR2, 1 µmol/L single concentration, ref DOI: 10.1158/1535-7163.MCT-18-0877
[19] = kinase IKKβ, 1 µmol/L single concentration, ref DOI: 10.1371/journal.pone.0092146
[20] = kinase PDK1, 1 µmol/L single concentration, ref DOI: 10.1371/journal.pone.0092146
[21] = kinase Erk2, 1 µmol/L single concentration, ref DOI: 10.1371/journal.pone.0092146
[22] = kinase TXK, 1 µmol/L single concentration, ref DOI: 10.1371/journal.pone.0092146
[23] = kinase JNK1, 1 µmol/L single concentration, ref DOI: 10.1371/journal.pone.0092146
[24] = kinase CK1δ, 1 µmol/L single concentration, ref DOI: 10.1371/journal.pone.0092146
[25] = kinase EPHA4, 1 µmol/L single concentration, ref DOI: 10.1371/journal.pone.0092146
[26] = MNK1, 1 µmol/L single concentration, ref DOI: 10.1371/journal.pone.0092146
[27] = NDR2, 1 µmol/L single concentration, ref DOI: 10.1371/journal.pone.0092146

SMILES | %-inhibition at 1 µmol/L, IKKβ [1, 10] | %-inhibition at 1 µmol/L, PDK1 [2, 11] | %-inhibition at 1 µmol/L, Erk2 [3, 12] | %-inhibition at 1 µmol/L, TXK [4, 13] | %-inhibition at 1 µmol/L, JNK1 [5, 14] | %-inhibition at 1 µmol/L, CK1δ [6, 15] | %-inhibition at 1 µmol/L, EPHA4 [7, 16] | %-inhibition, MNK1 [8, 17] | %-inhibition, NDR2 [9, 18] | further results
CC#CC(=O)N1CCC[C@H]1c1nc(-c2ccc(C(=O)Nc3ccccn3)cc2)c2c(N)nccn12 [acalabrutinib] | -7% | -1.47% | -2% | 68% | -0.882% | 2.76% | -3% | 12% | -6.41% | –
CCc1cc2c(cc1N1CCC(N3CCOCC3)CC1)C(C)(C)c1[nH]c3cc(C#N)ccc3c1C2=O [alectinib] | -5% | -2.12% | 1.1% | 2.46% | 3.24% | -5.53% | 3% | 18% | 4% | –
COc1cc(N2CCC(N3CCN(C)CC3)CC2)ccc1Nc1ncc(Cl)c(Nc2ccccc2P(C)(C)=O)n1 [brigatinib] | – | – | – | – | – | – | – | – | – | %-inhibition at 1 µmol/L, IKKβ [1]: -4.22%; %-inhibition at 1 µmol/L, PDK1 [2]: 4.31%; %-inhibition at 1 µmol/L, Erk2 [3]: 10%; %-inhibition at 1 µmol/L, TXK [4]: 76%; %-inhibition at 1 µmol/L, JNK1 [5]: 40%; %-inhibition at 1 µmol/L, CK1δ [6]: -3.62%; %-inhibition at 1 µmol/L, EPHA4 [7]: 3%; %-inhibition, MNK1 [8]: 16%; %-inhibition, NDR2 [9]: 62%
Cc1cc(Nc2ncc(Cl)c(Nc3ccccc3S(=O)(=O)C(C)C)n2)c(OC(C)C)cc1C1CCNCC1 [ceritinib] | -7% | -2.25% | 57% | 1.15% | 9% | -6% | 1.33% | -1.9% | 14% | –
O=C(c1ccc(F)c(F)c1Nc1ccc(I)cc1F)N1CC(O)([C@@H]2CCCCN2)C1 [cobimetinib] | 1.29% | -1.65% | -6.38% | 0.165% | -3% | -2.63% | 3% | 14% | 2.54% | –
C[C@@H](Oc1cc(-c2cnn(C3CCNCC3)c2)cnc1N)c1c(Cl)ccc(F)c1Cl [crizotinib] | – | – | – | – | – | – | – | – | – | %-inhibition at 1 µmol/L, IKKβ [1, 19]: -5%; %-inhibition at 1 µmol/L, PDK1 [2, 20]: -5%; %-inhibition at 1 µmol/L, Erk2 [3, 21]: -4.58%; %-inhibition at 1 µmol/L, TXK [4, 22]: 39%; %-inhibition at 1 µmol/L, JNK1 [5, 23]: 0.431%; %-inhibition at 1 µmol/L, CK1δ [6, 24]: 9%; %-inhibition at 1 µmol/L, EPHA4 [7, 25]: 58%; %-inhibition, MNK1 [8, 26]: 0%; %-inhibition, NDR2 [9, 27]: -4.76%
CC(C)(C)c1nc(-c2cccc(NS(=O)(=O)c3c(F)cccc3F)c2F)c(-c2ccnc(N)n2)s1 [dabrafenib] | – | – | – | – | – | – | – | – | – | %-inhibition at 1 µmol/L, IKKβ [1, 19]: 3.71%; %-inhibition at 1 µmol/L, PDK1 [2, 20]: -5.38%; %-inhibition at 1 µmol/L, Erk2 [3, 21]: -8%; %-inhibition at 1 µmol/L, TXK [4, 22]: 18%; %-inhibition at 1 µmol/L, JNK1 [5, 23]: -1.12%; %-inhibition at 1 µmol/L, CK1δ [6, 24]: 8.51%; %-inhibition at 1 µmol/L, EPHA4 [7, 25]: 12%; %-inhibition, MNK1 [8, 26]: 20%; %-inhibition, NDR2 [9, 27]: -2%
C=CC(=O)N1CCC[C@@H](n2nc(-c3ccc(Oc4ccccc4)cc3)c3c(N)ncnc32)C1 [ibrutinib] | -0.348% | -2% | -7% | 98% | -2.33% | 7.46% | 13% | 15% | 3.47% | –
CO[C@@H]1[C@H](N(C)C(=O)c2ccccc2)C[C@H]2O[C@]1(C)n1c3ccccc3c3c4c(c5c6ccccc6n2c5c31)C(=O)NC4 [midostaurin] | -4% | 98% | 2.14% | 25% | 9% | – | 2.15% | 50% | 22% | %-inhibition at 1 µmol/L, CK1δ [6]: -2%
